The values below come from US4939177A, “Use of avarol for the control of AIDS and ARC” (Merz + Co. GmbH & Co., priority 1986, dated 1990).

Each structure is given as a SMILES string.

The subject of experiment [1] is mouse leukemia cells L5178-Y. The following applies: in vitro and in vivo; cited from earlier work.
The test system of a further experiment is herpes simplex virus. The note with it: in vitro, cultures of herpes simplex virus; cited from earlier work.
The test system of experiment [2] is L5178y mouse lymphoma cells. The experiment is described as follows: L5178y cell growth. The class given is cell-based. The following applies: Mus musculus, L5178Y, absence of Avarol. How it is done: mouse lymphoma cells were grown in roller tube cultures in Eagle's minimum essential medium, supplemented with 10% horse serum (Muller et al., Cancer Res. 39: 1102-1107; 1979 and Muller et al. Cancer Res. 45: 4822-4826; 1985). […] The cell growth was determined by cell count with a computer supported cell-counter (128-channel counter; Cytocomp, system Michaelis: BIOTRON-Medizinelektronik, Mainz; West Germany). The ED50 (±SD) was estimated by logit regression (L. Sachs, […], Springer-Verlag, Berlin 1984). The mathematical evaluation of the fractional inhibitory concentration indices (FIC indices) of Avarol/Avarone-DDC combinations was performed according to published equations and experimental conditions (Muller et al., Cancer Lett. 1: 127-132; 1976; and Phillips et al., Antimicrob. Agents Chemother. 9: 736-740, 1976). […] In this set of experiments, […] cells were incubated with Avarol in the absence or presence of the established SODase inhibitor DDC.

In experiment [3] the test system is DTH to oxazolone in NMRI mice. Nature of the experiment: Contact allergy to oxazolone. The class given is in vivo, mouse. The note with it: 30 mg/kg per os. How it is done: Allergic contact dermatitis against oxazolone was produced according to the method of Asherson and Ptak (Immunol. 15: 405-416; 1968) as well as those of Bure and Degrand (Agents and Actions 9: 534; 1979). Male NMRI mice (20-22 g; 10/group) were sensitized with 100 μl of a 2% oxazolone in acetone solution onto the shaved abdomen (day 0). Animals were treated with avarol (i.p.) daily from day -1 to +2 or from day +6 to +8; control group was treated with deoxymethasone (Casella-Hoechst) as a standard per os at a daily dose of 30 mg/kg for the same period of time as for avarol. Seven days after sensitization 10 μl of a 3% oxazolane (this concentration was previously found to give more reproducible results than the lower 2% concentration) solution were topically applied onto the inner side of one ear, whereas the other ear received only acetone. […] Treated groups were compared with controls using the U-test.

Consider `CC1=CCC[C@H]2[C@](C)(CC3=CC(=O)C=CC3=O)[C@@H](C)CC[C@]12C` [Avarone], for which the antileukemic action result in experiment [1] is “antileukemic action”. The virostatic action entry with herpes simplex virus is given as “certain virostatic action in vitro”.
Usually inhibition stands for the percentage by which the read-out fell short of the control. Regarding `CCN(CC)C(=S)S` [DDC, diethyldithiocarbamate, reference compound], the inhibition at 1.46 µM in experiment [2] (DDC 1.46 μM) was 26%. Moreover, the inhibition at 1.71 µM in experiment [2] (DDC 1.71 μM) was determined as 38%.
`C[C@@H]1C[C@H]2[C@@H]3CCC4=CC(=O)C=C[C@]4(C)[C@@]3(F)[C@@H](O)C[C@]2(C)[C@H]1C(=O)CO` [Deoxymethasone]: the “influence on DTH reaction to oxazolone, in words” value in experiment [3] (both schedules) is recorded as “significant immunosuppressive influence”. The “24 hours increase in ear thickness” value in experiment [3] (day +6 to +8, control 18.5±3.7) worked out at 10.9 ± 6.1 mg; in experiment [3] (day -1 to +2, control 22.3±5.6), 10.2 ± 6.0 mg.
